# Assay results taken from BindingDB's records for patent US20250091994 (Kobe University, 2025).
# Target: GTPase HRas [G12V] (Homo sapiens, UniProt P01112, G12V)
# Assay: In Vitro Ras-Raf Binding Inhibitory Activity Assay
# Protocol: The in vitro Ras-Raf binding inhibitory activity of the compound of the present invention was evaluated by an ELISA method described below. GST-c-Raf-1 RBD diluted with a Ras-Raf binding buffer (50 mM Tris-HCl pH7.4, 150 mM NaCl, 5 mM MgCl2, 1 mM EDTA, and 1% Triton-X100) was added to each well of a glutathione-coated 96-well plate (Thermo Fisher Scientific.), and was incubated at 30° C. for 1 hour, to immobilize Raf on the well. The unbound free Raf was eliminated by washing the well with the Ras-Raf binding buffer three times. Subsequently, GTPTS-bound HRasG12V diluted with the Ras-Raf binding buffer and each compound solution (final DMSO concentration: 10%) were applied to each well, and the resulting mixture was then incubated at 30° C. for 1 hour, so that Ras and Raf were allowed to bind to each other. Thereafter, the plate was washed with the Ras-Raf binding buffer twice, and was then subjected to a blocking treatment at room temperature for 20 minutes, using TBS-Tween {10 mM Tris-HCl pH 7.4, 150 mM NaCl, and 0.05% (w/v) Tween-20}-5% (w/v) bovine serum albumin (BSA). After that, an anti-HRas antibody (C-20, Santa Cruz) or an anti-HRas antibody (259, Santa Cruz), which had been 1000 times diluted with TBS-Tween-5% BSA, was added to the reaction mixture, and incubated at room temperature for 1 hours. After the treatment with the primary antibody, the plate was washed with TBS-Tween-5% BSA three times, and a horseradish peroxidase-labeled secondary antibody against rabbit immunoglobulin G (GE Healthcare) of 1000 times diluted with TBS-Tween-5% BSA, was added to the plate, followed by incubation at room temperature for 1 hour. After the treatment with the secondary antibody, the plate was washed with TBS-Tween-5% BSA three times, and a substrate solution (TMB) was then added to the plate, followed by incubation at room temperature for 15 minutes for coloration. Finally, 2 M H2SO4 was added to stop color development (coloration reaction kit: Nacalai Tesque).
# Sequence of GTPase HRas [G12V] (P01112 whole entry G12V, looked up): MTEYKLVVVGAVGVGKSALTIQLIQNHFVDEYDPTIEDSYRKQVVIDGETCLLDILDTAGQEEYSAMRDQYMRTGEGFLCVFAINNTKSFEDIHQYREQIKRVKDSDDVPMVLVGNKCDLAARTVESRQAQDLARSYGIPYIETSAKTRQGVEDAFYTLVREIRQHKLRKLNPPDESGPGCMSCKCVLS
row,SMILES,IC50 [nM]
1,"COc1cc(/C=C2/C(=O)c3ccccc3N2C(C)=O)ccc1NC(=O)CN1CCOCC1 [US20250091994, Example 27]",2700
2,"CC(=O)N1C(=Cc2ccc(C(=O)N3CCOCC3)cc2)C(=O)c2ccccc21 [US20250091994, Example 67]",5600
3,"CC(=O)N1/C(=C\c2ccc3cc(C#N)ccc3n2)C(=O)c2ccccc21 [US20250091994, Example 34]",2800
4,"COc1cc(/C=C2/C(=O)c3ccccc3N2C(=O)c2ccccc2)ccc1OCC(N)=O [US20250091994, Example 49]",13000

# Compounds with a lower IC50, results first:
row,IC50 [nM],SMILES
1,800,"CC(=O)N1/C(=C\c2cc(-c3ccccc3-c3ccccc3)c3cc(C(=O)N4CCC(C(=O)O)CC4)ccc3n2)C(=O)c2ccccc21 [US20250091994, Example 142]"
2,500,"CC(=O)N1CCc2c(cccc2-c2cc(/C=C3/C(=O)c4ccccc4N3C(C)=O)nc3ccc(C(=O)N4CCOCC4)cc23)C1 [US20250091994, Example 146]"
3,1400,"CC(=O)N1C(=Cc2ccc3cc(OCCO)ccc3n2)C(=O)c2ccccc21 [US20250091994, Example 126]"
4,510,"CC(=O)N1C(=Cc2cc(-c3ccccc3-c3ccccc3)c3cc(C(=O)NC4CCN(C5COC5)CC4)ccc3n2)C(=O)c2ccccc21 [US20250091994, Example 97]"
5,2100,"CC(=O)N1/C(=C\c2ccc3cc(C(=O)O)ccc3n2)C(=O)c2ccccc21 [US20250091994, Example 127]"
